Consider 17 compounds from patent US7994140B2, “Classes of compounds that interact with GPCRs” (Alchemia Limited, priority 2002, dated 2011).

Structures are written as SMILES.

This assay deals with T1, MC4 (Homo sapiens, UniProt P32245).
T1 construct: purchased Perkin Elmer BioSignal; host or cells: HEK 293
In words: GPCR radioligand binding (RLB) assay, melanocortin MC4, [125I]NDP-αMSH. Particulars: 4.0 Micromolar; Example Library 13. The procedure, abridged:
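Competition binding against radioligand ([125I]NDP-αMSH for MC4, [125I]SST-14 for SST5) on membranes of HEK 293 cells carrying the human receptor; buffer and incubation time optimized per receptor. Filtration through 0.5% PEI-treated glass fiber, washing, then scintillation counting.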

T1 sequence (P32245 whole entry): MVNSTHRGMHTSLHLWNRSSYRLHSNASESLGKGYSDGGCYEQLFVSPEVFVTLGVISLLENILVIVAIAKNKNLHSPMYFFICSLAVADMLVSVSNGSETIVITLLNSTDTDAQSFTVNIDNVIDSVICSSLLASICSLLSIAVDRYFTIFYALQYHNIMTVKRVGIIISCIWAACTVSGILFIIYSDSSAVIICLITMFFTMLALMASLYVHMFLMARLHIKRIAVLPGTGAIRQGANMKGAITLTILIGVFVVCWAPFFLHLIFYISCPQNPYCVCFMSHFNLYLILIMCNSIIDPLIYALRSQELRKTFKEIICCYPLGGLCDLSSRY

Take `N=C(N)NCCC(=O)N[C@H]1C(OCc2ccc(-c3ccccc3)cc2)O[C@H](COCc2ccc3ccccc3c2)[C@@H](O)[C@H]1OCc1ccc2ccccc2c1` (some centres unmarked) [Compound 473]: the “MC4 Inhibition at 4.0 Micromolar” value is “+ (Indicates inhibition greater than . . . 50%)”.
On to `N=C(N)NCCC(=O)N[C@H]1C(OCc2ccc(-c3ccccc3)cc2)O[C@H](COCc2ccccc2)[C@@H](O)[C@H]1OCc1ccc2ccccc2c1` (some centres unmarked) [Compound 474], for which the “MC4 Inhibition at 4.0 Micromolar” value is reported as “+ (Indicates inhibition greater than . . . 50%)”.
Regarding `N=C(N)NCCC(=O)N[C@H]1C(OCc2ccc(-c3ccccc3)cc2)O[C@H](COCc2ccc(Cl)cc2)[C@@H](O)[C@H]1OCc1ccc2ccccc2c1` (some centres unmarked) [Compound 475], the “MC4 Inhibition at 4.0 Micromolar” value is on record as “+ (Indicates inhibition greater than . . . 50%)”.
As for `N=C(N)NCCC(=O)N[C@H]1C(OCc2ccc(-c3ccccc3)cc2)O[C@H](COCc2ccc3ccccc3c2)[C@@H](O)[C@H]1OCc1ccc(-c2ccccc2)cc1` (some centres unmarked) [Compound 476], the “MC4 Inhibition at 4.0 Micromolar” value was “+ (Indicates inhibition greater than . . . 50%)”.
The value for `N=C(N)NCCC(=O)N[C@H]1C(OCc2ccc(-c3ccccc3)cc2)O[C@H](COCc2ccccc2)[C@@H](O)[C@H]1OCc1ccc(-c2ccccc2)cc1` (some centres unmarked) [Compound 477] was “+ (Indicates inhibition greater than . . . 50%)”; that for `N=C(N)NCCC(=O)N[C@H]1C(OCc2ccc(-c3ccccc3)cc2)O[C@H](COCc2ccc(Cl)cc2)[C@@H](O)[C@H]1OCc1ccc(-c2ccccc2)cc1` (some centres unmarked) [Compound 478] was “+ (Indicates inhibition greater than . . . 50%)”.
As for `N=C(N)NCC(=O)N[C@H]1C(OCc2ccc(Cl)cc2)O[C@H](COCc2ccc3ccccc3c2)[C@@H](O)[C@H]1OCc1ccc(Cl)cc1` (some centres unmarked) [Compound 479], the “MC4 Inhibition at 4.0 Micromolar” value is on record as “+ (Indicates inhibition greater than . . . 50%)”.
The value for `N=C(N)NCC(=O)N[C@H]1C(OCc2ccc(Cl)cc2)O[C@H](COCc2ccccc2)[C@@H](O)[C@H]1OCc1ccc(Cl)cc1` (some centres unmarked) [Compound 480] was “+ (Indicates inhibition greater than . . . 50%)”; that for `N=C(N)NCC(=O)NC1C(OCc2ccc(Cl)cc2)OC(COCc2ccc(Cl)cc2)C(O)C1OCc1ccc(Cl)cc1` (centres unmarked) [Compound 481] was “+ (Indicates inhibition greater than . . . 50%)”; that for `N=C(N)NCC(=O)NC1C(OCc2ccc(Cl)cc2)OC(COCc2ccc3ccccc3c2)C(O)C1OCc1ccc2ccccc2c1` (centres unmarked) [Compound 482] was “+ (Indicates inhibition greater than . . . 50%)”.
The value for `N=C(N)NCC(=O)NC1C(OCc2ccc(Cl)cc2)OC(COCc2ccccc2)C(O)C1OCc1ccc2ccccc2c1` (centres unmarked) [Compound 483] was “+ (Indicates inhibition greater than . . . 50%)”; that for `N=C(N)NCC(=O)NC1C(OCc2ccc(Cl)cc2)OC(COCc2ccc(Cl)cc2)C(O)C1OCc1ccc2ccccc2c1` (centres unmarked) [Compound 484] was “+ (Indicates inhibition greater than . . . 50%)”.
For the compound `N=C(N)NCC(=O)NC1C(OCc2ccc(Cl)cc2)OC(COCc2ccc3ccccc3c2)C(O)C1OCc1ccc(-c2ccccc2)cc1` (centres unmarked) [Compound 485], the “MC4 Inhibition at 4.0 Micromolar” value is given as “+ (Indicates inhibition greater than . . . 50%)”.
The value for `N=C(N)NCC(=O)NC1C(OCc2ccc(Cl)cc2)OC(COCc2ccccc2)C(O)C1OCc1ccc(-c2ccccc2)cc1` (centres unmarked) [Compound 486] was “+ (Indicates inhibition greater than . . . 50%)”; that for `N=C(N)NCC(=O)NC1C(OCc2ccc(Cl)cc2)OC(COCc2ccc(Cl)cc2)C(O)C1OCc1ccc(-c2ccccc2)cc1` (centres unmarked) [Compound 487] was “+ (Indicates inhibition greater than . . . 50%)”; that for `N=C(N)NCCC(=O)NC1C(OCc2ccc(Cl)cc2)OC(COCc2ccc3ccccc3c2)C(O)C1OCc1ccc(Cl)cc1` (centres unmarked) [Compound 488] was “+ (Indicates inhibition greater than . . . 50%)”.
For the compound `N=C(N)NCCC(=O)NC1C(OCc2ccc(Cl)cc2)OC(COCc2ccccc2)C(O)C1OCc1ccc(Cl)cc1` (centres unmarked) [Compound 489], the “MC4 Inhibition at 4.0 Micromolar” value is given as “+ (Indicates inhibition greater than . . . 50%)”.
